Experimental data taken from patent US20250264460A1, “METHOD OF MEASURING LEVEL OF IMMUNE SUPPRESSION” (THE JOHNS HOPKINS UNIVERSITY, priority 2022, published 2025).
“Also recorded” adds a separate entry of the source. Like-named read-outs stand apart in the source and are kept apart here.

Key:
SARS-COV-2 spike = assay type: in vivo, human; conditions: SOTRs on immunosuppression, two weeks post dose three
class-switched B cells = test: Flow cytometry of CD11c and CPT1a on class-switched B cells of SOTRs by MMF dose; assay type: in vivo, human; conditions: SOTRs on high dose MMF or MPA (>1000 mg/per day or >721 mg/day)
Description: (§1) FIGS. 4A-4J show high dose MMF inhibits mitochondrial fatty acid oxidation. FIGS. 4A-4B show normalized mean fluorescent intensity (MFI) of CD11c and CPT1a on total class-switched B cells segregated by dose of MMF; high (>1000), low (<1000), or none. […] FIGS. 4D-4E show oxygen consumption rate (OCR) following mitochondrial stress test of PBMCs plated directly post thaw from SOTRs or HCs (FIG. 4D) or healthy PBMCs treated in vitro with high or low dose MPA 48 hours prior to plating (FIG. 4E).

PBMCs [1] = test: Oil red O staining of lipid droplets in PBMCs from SOTRs, ex vivo; design: species or system human; conditions: PBMCs from SOTRs on high dose MMF
Description: as §1
Due to the association with MMF dose and CPT1a expression, PBMCs from SOTRs receiving high dose, low dose, or no MMF were evaluated ex vivo for alterations in lipid metabolism. Immunosuppression dose is largely determined by estimation of graft function and the measurement of the blood levels of immunosuppressive drugs, although neither method is sensitive or specific for determining the current immunosuppressive status, particularly for MMF, where drug levels are not routinely measured. […] Mitochondrial bioenergetics were next measured directly ex vivo via the Agilent Seahorse XF Cell Mito Stress Test at basal levels and in response to mitochondrial stress, in the absence of additional stimulation or exogenous substrates. The oxygen consumption rate (OCR) was used as a measurement of mitochondrial respiration/oxidative phosphorylation (OXPHOS). […]

PBMCs [2] = test: Seahorse XF Cell Mito Stress Test (OCR) of PBMCs from SOTRs, ex vivo; assay type: in vivo, human
Description: as §1
Due to the association with MMF dose and CPT1a expression, PBMCs from SOTRs receiving high dose, low dose, or no MMF were evaluated ex vivo for alterations in lipid metabolism. Immunosuppression dose is largely determined by estimation of graft function and the measurement of the blood levels of immunosuppressive drugs, although neither method is sensitive or specific for determining the current immunosuppressive status, particularly for MMF, where drug levels are not routinely measured. […] Mitochondrial bioenergetics were next measured directly ex vivo via the Agilent Seahorse XF Cell Mito Stress Test at basal levels and in response to mitochondrial stress, in the absence of additional stimulation or exogenous substrates. The oxygen consumption rate (OCR) was used as a measurement of mitochondrial respiration/oxidative phosphorylation (OXPHOS).

T cells and B cells = test: Cell Trace Violet proliferation of stimulated T cells and B cells in the presence of MPA; assay type: cell-based, human; conditions: 6 days
healthy PBMCs [3] = test: Seahorse OCR of healthy PBMCs treated in vitro with MPA; assay type: cell-based, human; conditions: for OCR: 48 hours prior to plating; for Effect on OCR increase of low dose MPA-treated cells: etomoxir (2 μM) 1 hour prior to measurement
Description: as §1
FIGS. 8A-81 show high dose MPA induces mitochondrial unresponsiveness. […] FIGS. 8D-8G show healthy PBMCs were treated with 5 μM MPA for 24 hours in complete media then rested overnight in low-nutrient media prior to analysis. Oxygen consumption rate (OCR) of exposed to long chain fatty acid palmitate (165 μM) (FIG. 8D), medium chain fatty acid octanoic acid (200 μM) (FIG. 8E), glucose (10 mM) and pyruvate (1 mM) (FIG. 8F), or glutamine (2 mM) (FIG. 8G) 20 minutes prior to analysis. FIGS. 8H-81 show fold change in baseline (FIG. 8H) or maximal (FIG. 81) OCR when healthy PBMCs were supplied with indicated substrates.
To test this hypothesis, cells were exposed to low dose etomoxir, an inhibitor of CPT1a transport of FAs into mitochondria. […] To confirm that high dose MPA inhibits FAO, palmitate (a long chain FA) was added exogenously to cultures 20 minutes prior to evaluation of mitochondrial respiration.

healthy PBMCs [4] = test: Oil red O staining of healthy PBMCs treated in vitro with MPA; assay type: cell-based, human; conditions: high dose MPA (5 μM)
Description: Genes associated lipid synthesis were increased in total B cells from SOTRs (R or NR) in SCR.NA seq (FIG. 14A). PCA plot of lipidomics performed on total B cells derived from SOTRs or HCs (FIG. 14B). […] Accumulation of lipid droplets were measured by Oil Red O in PBMCs from HC or SOTR (FIG. 14D).

PBMCs [5] = test: Viability of PBMCs after MPA treatment; assay type: cell-based, human; conditions: PBMCs 48 hours after 5 μM MPA, versus untreated
B cells and T cells = test: OCR of B cells and T cells treated with MPA and etomoxir; assay type: cell-based, human
Description: FIGS. 16A-16C show low dose MPA induces CPT1a-dependent FAO in B cells but not T cells.

[6] = etomoxir (CPT1a inhibition), MPA-treated

## COc1c(C)c2c(c(O)c1C/C=C(\C)CCC(=O)OCCN1CCOCC1)C(=O)OC2 [MMF, mycophenolate mofetil]
SARS-COV-2 spike
  Association of treatment with anti-S IgG response to third vaccine dose: specifically associated with a lack of response
SARS-COV-2 spike; listed as mycophenolate mofetil
  Association of treatment with anti-S IgG response to third vaccine dose: all participants who failed to respond to a 3rd dose received
class-switched B cells
  CD11c expression on class switched B cells: significantly lower
  CPT1a expression on class switched B cells: significantly lower
PBMCs [1]
  Intracellular lipid droplets (Oil Red O): higher levels of Oil Red O staining; also recorded: accumulation of intracellular lipid droplets
PBMCs [2]; PBMCs from SOTRs on high dose MMF
  Oxygen consumption rate (OCR): reduced oxygen consumption rate; also recorded: reduced OCR compared to other SOTRs
PBMCs [2]; PBMCs from SOTRs on low dose MMF, no exogenous substrates
  Basal respiration (OCR): significantly higher basal respiration compared to HCs

## COc1c(C)c2c(c(O)c1C/C=C(\C)CCC(=O)O)C(=O)OC2 [MPA, mycophenolic acid]
class-switched B cells
  CD11c expression on class switched B cells: significantly lower
  CPT1a expression on class switched B cells: significantly lower
T cells and B cells; high dose MPA (5 μM)
  Lymphocyte proliferation: completely inhibit proliferation
T cells and B cells; low dose MPA (0.05 μM)
  Lymphocyte proliferation: limit proliferation
Healthy PBMCs [3]; high dose MPA
  Response to mitochondrial stress tests: comparable manner to untreated cells
Healthy PBMCs [3]; high dose MPA (5 μM)
  Mitochondrial oxidation of supplemented substrates (medium-chain fatty acids, glucose, glutamine): inhibits mitochondrial oxidation of various substrates; also recorded: diminished mitochondrial oxidation of various supplemented substrates
  OCR: reduced OCR compared to low dose
Healthy PBMCs [3]; high dose MPA, palmitate (165 μM) 20 minutes prior
  Oxidation of exogenous palmitate (OCR): not able to oxidize exogenous long-chain fatty acid palmitate; also recorded: unable to oxidize palmitate
Healthy PBMCs [3]; low dose MPA
  OCR: directly induced increased OCR; also recorded: increased OCR compared to untreated PBMCs
Healthy PBMCs [4]
  Accumulation of lipids (Oil Red O): increased accumulation of lipids
Healthy PBMCs [4]; listed as mycophenolic acid
  Accumulation of lipids (Oil Red O): Accumulation of lipid droplets was seen
PBMCs [5]
  Cell viability: equivalent cell viability
B cells and T cells; high dose MPA
  OCR of B cells: blunted the increased OCR in B cells
B cells and T cells; low dose MPA
  OCR of B cells versus T cells: only B cells increased their OCR

## CCOC(=O)[C@@]1(CCCCCCOc2ccc(Cl)cc2)CO1 [etomoxir]
Healthy PBMCs [3]
  Effect on OCR increase of low dose MPA-treated cells: completely reversed the increase in OCR
Healthy PBMCs [3]; listed as Etomoxir
  Effect on OCR increase of low dose MPA-treated cells: completely reversed the increase of OCR
B cells and T cells; [6]
  OCR of B cells: reduced OCR to baseline levels in B cells
  OCR of T cells: had no effect on T cells
